Measured values: patent publication US6991778B2, “Use of dendrimers polyl-functionalized with nitroxide groups as contrast enhancing agents in MRI imaging of joints and injectable compositions comprising them” (Nitrosci, priority 1999, dated 2006)
Read-outs that look alike come from different tables or passages of the source.

Experiments:
[1] = Relaxivities (k1) of nitroxides and dendrimers; type: physicochemical; design: unit not given here; details: room temperature, 1.5 T
[2] = cited from earlier work
[3] = in vivo, iv; cited from earlier work
[4] = In vitro rate of nitroxide reduction by superoxide in the presence of a thiol (EPR); type: in vitro ADME; details: room temperature; nitroxide 50 micromolar, cysteine 200 micromolar, superoxide flux 10 micromolar/min, pH 7.4
From the text: In vitro rate of nitroxide reduction (Table 1) was undertaken using superoxide in the presence of a thiol, as an in vitro model for activated phagocytic cells. G. M. Rosen, B. E. Britigan, M. S. Cohen, S. P. Ellington and M. J. Barber, Biochim. Biophys. Acta, 969:236-241, 1988; G. M. Rosen and E. J. Rauckman. Biochem. Pharmacol. 26: 675-678, 1977; S. Pou, P. L. Davis, G. L. Wolf and G. M. Rosen, Free Rad. Res. 23: 353-364, 1995; and E. Finkelstein, G. M. Rosen and E. J. Rauckman, Biochim. Biophys. Acta, 802:90-98, 1984. For these determinations, nitroxides [S. Pou, et al, E. Finkelstein, et al., supra, and H. Kuthan, V. Ullrich and R. Estabrook, Biochem. J. 203: 551-558, 1982, (50 micromolar) were added to cysteine (200 micromolar) in the presence of a continued flux of superoxide (10 micromolar/min), generated by the action of xanthine oxidase on xanthine (400 micromolar) in Chelexed sodium phosphate buffer (50 mM, pH 7.4) The rate of superoxide production was estimated by following the superoxide dismutase (30 U/mL) inhibitable reduction of ferricytochrome c at […] using a molar absorbance of 21 mM^−1 cm^−1. H. Kuthan et al. supra. Rates of nitroxide reduction were monitored by EPR spectroscopy at ambient temperature by observing the change of the low-field (the broadened EPR spectrum of each dendrimer-linked nitroxide prevented the use of other peaks to measure rates of reduction) as a function of time.

[5] = MRI of shoulder joints after intra-articular injection; type: in vivo, human; details: 1 mL of 100 μM solution into both shoulder joints, 1.5 Tesla
Experimental: Into both shoulder joints of a person (45-55 kg), with post-trauma chronic soreness in one of the shoulder joint is injected 1 mL of a stock 100 μM sterile solution in 0.9% normal saline of a dendrimer of Formula (I) containing 32 terminal PROXYL-3-carbamido nitroxide groups using a (gauge 25) needle. Then position the patent in a MR imager (1.5 Tesla MR system, SIGNA; General Electric Medical Systems, Milwaukee, Wis.) and obtain a scan of both joints in the conventional manner.

[6] = MRI of rabbit knee joint after intra-articular injection; type: in vivo; details: 1 mL of stock solution into rabbit knee joint
Experimental: Rabbits (2.8-3.5 kg) to be used for MRI experiments are sedated with intramuscular Ketamine and Xylazine. Anesthesia is maintained with i. v. sodium pentobarbital as required. Under fluoroscopic guidance, a needle (gauge 25) is placed into the knee joint of a thus-anesthetized rabbit and 1 mL of a stock solution of a nitroxyl functionalized dendrimer of Formula (I) containing 32 nitroxyl functionalizing groups. The rabbit's injected joint is then positioned in a MR imager.

[7] = rabbit joints; Bacic, et al. 1997; cited from earlier work
[8] = rabbit; cited from earlier work

Row | Compound | Relaxivity (k1) [1] | Reduction Rate [4] [µM/min] | also measured
1 | O=C([O-])CN(CCN(CC(=O)[O-])CC(=O)O)CCN(CC(=O)[O-])CC(=O)O.[Gd+3] [Gd(DTPA), gadolinium (Gd)-DTPA] | 4.94 | – | relaxivity ([2]; as reported by Keana, et al.): 4.95 mM⁻¹ s⁻¹; relaxivity ([2]; room temperature, 1.5 T): ca. 5; equilibration throughout the cartilage [3]: ca. 5 hr
2 | CC1(C)CC(C(=O)O)C(C)(C)N1[O] (stereo not drawn) [[1], 3-carboxy-2,2,5,5-tetramethyl-1-pyrrolidinyloxyl, reference compound] | 0.19 | 0.52 | –
3 | DAB-dendrimer-(NH-3-CH2-PROXYL)4 [[15]] | 0.82 | – | –
4 | TREN-dendrimer-(NH-3-CO-PROXYL)3 [[6]] | 0.57 | 7.54 | –
5 | DAB-dendrimer-(NH-3-CO-PROXYL)32 [[9]] | 5.73 | 0.00 | status of the articular cartilage in the MR image [5]: readily identifiable; articular cartilage in the MR image [6]: readily identifiable
6 | CC1(C)CC(C[N+](C)(C)C)C(C)(C)N1[O].[I-] (stereo not drawn) [3-trimethylaminomethyl-2,2,5,5-tetramethyl-1-pyrrolidinyloxyl iodide] | – | – | affinity toward proteoglycans [7]: high affinity; in vivo stability [8]: remarkable
7 | DAB-dendrimer-(NH-3-CO-PROXYL)8 [[7]] | 1.69 | 0.00 | –
8 | DAB-dendrimer-(NH-3-CO-PROXYL)4 [[5]] | 0.82 | 7.93 | –
9 | DAB-dendrimer-(NH-3-CO-PROXYL)16 [[8]] | 3.19 | 0.00 | –
